This passage reports MBC and MIC results from ChEMBL document CHEMBL1148996, “6-Methoxylated and C-glycosyl flavonoids from Centaurea species” (1984).

Type in all cases: functional
In one assay the test system is Bacillus subtilis. Kind of assay: Antimicrobial activity against Bacillus subtilis ATCC 6633 by paper disk method.
Another assay concerns Klebsiella pneumoniae. Kind of assay: Antimicrobial activity against Klebsiella pneumoniae UJ57 by paper disk method.
Another assay has as its system Proteus vulgaris. Put plainly: Antimicrobial activity against Proteus vulgaris ATCC 8427 by paper disk method.
Another assay has as its system Pseudomonas aeruginosa. Put plainly: Antimicrobial activity against Pseudomonas aeruginosa ATCC 1539 by paper disk method.
The test system of the next assay is Escherichia coli. Put plainly: Antimicrobial activity against Escherichia coli ATCC 8739 by paper disk method.

In brackets after ≈: the same amount, converted by molar mass.

Turning to `O=c1cc(-c2ccc(O)cc2)oc2cc(O)cc(O)c12` [APIGENIN], the minimal bactericidal concentration (MBC) against Bacillus subtilis came to 219 µg/mL (≈ 810 µM); in the assay with Klebsiella pneumoniae, 438 µg/mL (≈ 1620 µM); in the assay with Proteus vulgaris, 438 µg/mL (≈ 1620 µM); with Pseudomonas aeruginosa it was 438 µg/mL (≈ 1620 µM); against Escherichia coli it was 438 µg/mL (≈ 1620 µM). For the same compound, the minimum inhibitory concentration (MIC) against Bacillus subtilis was 110 µg/mL (≈ 405 µM); in the assay on Klebsiella pneumoniae it was 219 µg/mL (≈ 810 µM); against Proteus vulgaris, 54.8 µg/mL (≈ 203 µM); against Pseudomonas aeruginosa, 110 µg/mL (≈ 405 µM); against Escherichia coli, 110 µg/mL (≈ 405 µM).
In the assay with Bacillus subtilis, `COc1ccc(-c2cc(=O)c3c(O)c(OC)c(OC)cc3o2)cc1O` [EUPATORIN] came in with an MBC of 188 µg/mL (≈ 545 µM) and an MIC of 93.8 µg/mL (≈ 272 µM). In the assay on Escherichia coli, this compound displayed an MBC of more than 375 µg/mL and a minimal inhibitory concentration (MIC) of 188 µg/mL (≈ 545 µM).
In the assay on Bacillus subtilis, `COc1c(O)cc2oc(-c3ccc(O)cc3)cc(=O)c2c1O` [HISPIDULIN] gave a minimum bactericidal concentration (MBC) of more than 250 µg/mL and an MIC of 125 µg/mL (≈ 416 µM). In the assay on Proteus vulgaris, this compound yielded an MBC of more than 250 µg/mL and an MIC of 125 µg/mL (≈ 416 µM).
As for `COc1ccc(-c2cc(=O)c3c(O)c(OC)c(OC)cc3o2)cc1OC`, the minimum bactericidal concentration (MBC) against Pseudomonas aeruginosa is 250 µg/mL (≈ 698 µM); in the assay on Escherichia coli, 500 µg/mL (≈ 1400 µM). The MIC amounted to 125 µg/mL (≈ 349 µM) with Pseudomonas aeruginosa and 250 µg/mL (≈ 698 µM) in the assay on Escherichia coli.
In the assay on Escherichia coli, `COc1cc(-c2cc(=O)c3c(O)c(OC)c(O)cc3o2)ccc1O` [JACEOSIDINE] came in with an MBC of 250 µg/mL (≈ 757 µM) and an MIC of 125 µg/mL (≈ 378 µM).

Usually MBC stands for the lowest tested concentration that kills the bacteria rather than only halting them. The term MIC denotes the lowest concentration found to suppress growth.
